Tested on: patients with advanced/metastatic solid tumors
Experiment: Phase I safety: adverse events
Assay type: in vivo, human

## CNC(=O)c1nn(C)c2c1C(C)(C)Cc1cnc(Nc3ccc(N4CCN(C)CC4)cc3)nc1-2 [PHA-848125AC, N,1,4,4-tetramethyl-8-{[4-(4-methylpiperazin-1-yl)phenyl]amino}-4,5-dihydro-1H-pyrazolo [4,3-h]quinazoline-3-carboxamide]
S1
  ERG findings during treatment: No abnormal ERG findings
  doses at which DLTs≥Grade 3 were noted: ≥ 200 mg/day
S1 50 mg/day N=3, all cycles
  Any drug-related adverse event, CTC Grade 1–4: patients: 3
  Nausea, drug-related, CTC Grade 1–4: patients: 1
S1 100 mg/day N=6, all cycles
  Any drug-related adverse event, CTC Grade 1–4: patients: 6
  Any drug-related adverse event, CTC Grade 3–4: patients: 1
  Decreased Hb, drug-related, CTC Grade 1–4: patients: 1
  Decreased Hb, drug-related, CTC Grade 3–4: patients: 1
  Diarrhea, drug-related, CTC Grade 1–4: patients: 1
  Fatigue, drug-related, CTC Grade 1–4: patients: 2
  Fatigue, drug-related, CTC Grade 3–4: patients: 1
  Nausea, drug-related, CTC Grade 1–4: patients: 3
  Tremor, drug-related, CTC Grade 1–4: patients: 2
  Vomiting, drug-related, CTC Grade 1–4: patients: 3
S1 200 mg/day
  DLT events: Grade 3 ataxia and Grade 2–3 tremors
S1 200 mg/day N=6, all cycles
  Any drug-related adverse event, CTC Grade 1–4: patients: 6
  Any drug-related adverse event, CTC Grade 3–4: patients: 5
  Ataxia, drug-related, CTC Grade 1–4: patients: 3
  Ataxia, drug-related, CTC Grade 3–4: patients: 3
  Diarrhea, drug-related, CTC Grade 1–4: patients: 5
  Diarrhea, drug-related, CTC Grade 3–4: patients: 1
  Dizziness, drug-related, CTC Grade 1–4: patients: 1
  Fatigue, drug-related, CTC Grade 1–4: patients: 2
  Increased ALT, drug-related, CTC Grade 1–4: patients: 1
  Increased ALT, drug-related, CTC Grade 3–4: patients: 1
  Nausea, drug-related, CTC Grade 1–4: patients: 4
  Neutropenia, drug-related, CTC Grade 1–4: patients: 1
  Neutropenia, drug-related, CTC Grade 3–4: patients: 1
  Syncope, drug-related, CTC Grade 1–4: patients: 1
  Syncope, drug-related, CTC Grade 3–4: patients: 1
  Tremor, drug-related, CTC Grade 1–4: patients: 4
  Tremor, drug-related, CTC Grade 3–4: patients: 2
  Vomiting, drug-related, CTC Grade 1–4: patients: 4
S1 300 mg/day N=1, all cycles
  Any drug-related adverse event, CTC Grade 1–4: patients: 1
  Any drug-related adverse event, CTC Grade 3–4: patients: 1
  Ataxia, drug-related, CTC Grade 1–4: patients: 1
  Ataxia, drug-related, CTC Grade 3–4: patients: 1
  Dehydration, drug-related, CTC Grade 1–4: patients: 1
  Diarrhea, drug-related, CTC Grade 1–4: patients: 1
  Dizziness, drug-related, CTC Grade 1–4: patients: 1
  Fatigue, drug-related, CTC Grade 1–4: patients: 1
  Nausea, drug-related, CTC Grade 1–4: patients: 1
  Tremor, drug-related, CTC Grade 1–4: patients: 1
  Vomiting, drug-related, CTC Grade 1–4: patients: 1
S1 (7 days on/7 days off q2wks), all doses
  dose-limiting toxicities (DLTs): ataxia (Grade 2–4) and tremors (Grade 2–3)
S1, single patient, Grade 1 increased lacrimation
  patients with drug-related eye disorders: 4.5%
S1 N=22
  patients discontinued due to adverse events: 13.6%
S2
  ataxia: not observed
  fundoscopy and ERG abnormalities during treatment: neither clinically relevant abnormality at fundoscopy nor ERG abnormalities
S2 150 mg/day N=5, all cycles
  Anemia, drug-related, CTC Grade 1–4: patients: 2
  Any drug-related adverse event, CTC Grade 1–4: patients: 5
  Any drug-related adverse event, CTC Grade 3–4: patients: 4
  Diarrhea, drug-related, CTC Grade 1–4: patients: 3
  Hypokalemia, drug-related, CTC Grade 1–4: patients: 1
  Hypokalemia, drug-related, CTC Grade 3–4: patients: 1
  Increased ALT, drug-related, CTC Grade 1–4: patients: 1
  Increased ALT, drug-related, CTC Grade 3–4: patients: 1
  Increased Lipase, drug-related, CTC Grade 1–4: patients: 1
  Increased Lipase, drug-related, CTC Grade 3–4: patients: 1
  Nausea, drug-related, CTC Grade 1–4: patients: 3
  Neutropenia, drug-related, CTC Grade 1–4: patients: 1
  Tremor, drug-related, CTC Grade 1–4: patients: 3
  Vomiting, drug-related, CTC Grade 1–4: patients: 2
  Vomiting, drug-related, CTC Grade 3–4: patients: 1
S2 200 mg/day N=4, all cycles
  Anemia, drug-related, CTC Grade 1–4: patients: 2
  Any drug-related adverse event, CTC Grade 1–4: patients: 4
  Any drug-related adverse event, CTC Grade 3–4: patients: 2
  Dehydration, drug-related, CTC Grade 1–4: patients: 1
  Diarrhea, drug-related, CTC Grade 1–4: patients: 3
  Diarrhea, drug-related, CTC Grade 3–4: patients: 1
  Dizziness, drug-related, CTC Grade 1–4: patients: 2
  Fatigue, drug-related, CTC Grade 1–4: patients: 3
  Nausea, drug-related, CTC Grade 1–4: patients: 1
  Neutropenia, drug-related, CTC Grade 1–4: patients: 1
  Tremor, drug-related, CTC Grade 1–4: patients: 2
  Tremor, drug-related, CTC Grade 3–4: patients: 1

Source: paper PMC3561458 (Investigational new drugs, 2011)
